Results from patent US7989446B2, “4-amino 5-cyanopyrimidine derivatives” (Otsuka Pharmaceutical Co., Ltd., priority 2004, dated 2011).
pEC50: −log10 of the molar value. Where a name gives a salt, the structure may show the parent alone.

Key:
[1] = test system: Intraocular Pressure in Rabbit; experiment: Measuring test for intraocular pressure in rabbit; format: in vivo, Female New Zealand white rabbits; settings: 0.3% suspended ophthalmic preparation, test group, mean±standard error
Experimental: (3) Measuring Test for Intraocular Pressure in Rabbit
The test compounds were dissolved in 10 mM of phosphate buffer (pH 7.5) (hereinafter, referred to as “vehicle of ophthalmic preparation”), and they were instilled in a given concentration. In addition, the compounds insoluble in that concentration was used as a suspension. Female New Zealand white rabbits (KITAYAMA LABES Co., Ltd.) whose weights were 2.0-4.0 kg were used.
The measurement of the intraocular pressure was carried out using Pneumatonometer (Model 30 Classic, Mentor company) without anesthesia. In addition, before the measurement of the intraocular pressure, the surface anesthesia with 0.4% oxybuprocaine hydrochloride (“Benoxil” 0.4% ophthalmic solution, Santen Pharmaceutical Co., Ltd.) was carried out.
The animals whose intraocular pressure was stable before instillation were selected, and these animals were divided to every 4 animal in each one group, 50 μL of eye drops including each the test compound was administered to one-sided eye and vehicle was administered to contralateral eye as the control eye. The measurement of intraocular pressure was carried out before instillation and after 0.5, 1, 2, 3, 4 and 6 hours from instillation. The effect on the intraocular pressure was shown as the difference from pre-instillation (ΔIOP, mmHg, mean±standard error). The following Tables 14 and 15 show the results of Control Compounds A and B used as 1% suspensions which are the same as in the pharmacological test (1).
The animals were pretreated as mentioned above, and among them animals whose intraocular pressure was stable before instillation were selected, and these animals were divided to every 5 to 8 animal in each one group. Every two group was used for each of the test compounds. The test compound was administered unilaterally to the eye of the test group rabbit and the intraocular pressure was measured. The vehicle was administered unilaterally to the eye of the control group rabbit and the intraocular pressure was measured. As mentioned above, the measurement of intraocular pressure was carried out before instillation and after 0.5, 1, 2, 3, 4 and 6 hours from instillation, and the effect on the intraocular pressure was shown as the difference from pre-instillation (ΔIOP, mmHg, mean±standard error).

[2] = molecular target: T1, adenosine A2a receptor (Human) (Homo sapiens, UniProt P29274); experiment: c-AMP generating action in cell expressing adenosine A2a receptor; format: cell-based; settings: HEK293 cell expressing human A2a; 100% = c-AMP caused by 1 μM CGS-21680; read-out: A2a Agonistic Action (EC50)
T1 construct: host or cells: HEK293
T1 sequence (P29274 whole entry): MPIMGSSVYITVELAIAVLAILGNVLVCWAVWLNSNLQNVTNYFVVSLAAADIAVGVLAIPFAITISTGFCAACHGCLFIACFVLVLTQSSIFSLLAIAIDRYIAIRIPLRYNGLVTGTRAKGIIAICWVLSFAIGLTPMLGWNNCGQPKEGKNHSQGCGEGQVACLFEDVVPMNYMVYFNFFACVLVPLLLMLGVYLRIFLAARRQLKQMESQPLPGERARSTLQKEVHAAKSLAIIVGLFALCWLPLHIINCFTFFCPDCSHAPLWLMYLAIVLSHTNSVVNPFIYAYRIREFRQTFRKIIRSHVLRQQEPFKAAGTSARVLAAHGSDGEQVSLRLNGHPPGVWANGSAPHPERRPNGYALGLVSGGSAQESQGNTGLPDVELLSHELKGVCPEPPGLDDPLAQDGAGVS
Experimental: (1) c-AMP Generating Action in Cell Expressing Adenosine A2a Receptor
The test was carried out as mentioned below with reference to the method disclosed in the reference (Klotz k. N. et al., Naunyn-Schmiedeberg's Arch. Pharmacol., (1998) 357, 1-9; Shryock J. C. et al., Molecular Pharmacology, (1998) 53, 886-893).
As to the cell, HEK293 cell expressing adenosine A2a receptor (Human) (PerkinElmer Life Sciences, Code No. RBHA2AC) was used.
As to the culture medium, Dulbecco's modified Eagles medium (DMEM) including 10% FBS (Fetal bovine serum) and 1 mM of sodium pyruvate was used.
The cell was placed on 96 well plate (1×10^5/well), and cultured overnight. After removing off the supernatant, to each well, 0.1 ml of DMEM (without FBS) containing 20 mM HEPES, 0.1 mM of IBMX (3-isobutyl-1-methylxanthine) and 2 unit/mL adenosine deaminase was added, and they were incubated at 37° C. for 30 minutes. To each well, 0.1 ml of the culture medium including the DMSO solution of the test compound in an appropriate concentration was added and they were incubated for additional 30 minutes. After removing off the supernatant, the cytolytic solution was added to quench the reaction. The amount of c-AMP in each well was measured by using the c-AMP enzyme immunoassay (EIA) system (Amersham Biosciences, Code No. RPN225).
The same assay was repeated using CGS-21680 (2-p-carboxyethyl)phenethylamino-5′-N-ethylcarboxamidoadenosine hydrochloride, (Sigma, code C141) as reference compound. The amount of resultant c-AMP in the medium, caused by 1 μM of reference compound, was defined to be 100%. A concentration of assayed compound in the medium, producing 50% c-AMP amounts, was calculated to be EC50 value.

pEC50 [2] | SMILES | other results
– | CCNC(=O)[C@H]1O[C@@H](n2cnc3c(N)nc(NCCc4ccc(CCC(=O)O)cc4)nc32)[C@H](O)[C@@H]1O [CGS-21680, (2-p-carboxyethyl)phenethylamino-5′-N-ethylcarboxamidoadenosine hydrochloride, reference compound] | ΔIOP (mmHg) ([1]; 0.5 hr): −2.5 ± 0.4 mmHg; ΔIOP (mmHg) ([1]; 1 hr): −6.3 ± 0.6 mmHg; ΔIOP (mmHg) ([1]; 2 hr): −4.2 ± 0.4 mmHg; ΔIOP (mmHg) ([1]; 3 hr): −3.5 ± 0.4 mmHg; ΔIOP (mmHg) ([1]; 4 hr): −1.5 ± 0.7 mmHg; ΔIOP (mmHg) ([1]; 6 hr): 0.3 ± 0.4 mmHg
7.40 | CC(=O)Nc1ccc(-c2nc(SCc3ccccn3)nc(N)c2C#N)cc1 [Example 1, N-{4-[6-amino-5-cyano-2-(pyridin-2-ylmethylsulfanyl)-pyrimidin-4-yl]phenyl}acetamide] | –
7.18 | CC(=O)Nc1ccc(-c2nc(SCc3ccc(C)cn3)nc(N)c2C#N)cc1 [Example 3, N-{4-[6-amino-5-cyano-2-(5-methylpyridin-2-ylmethylsulfanyl)pyrimidin-4-yl]phenyl}acetamide] | –
6.06 | CC(=O)Nc1ccc(-c2nc(SCc3cc(C)ccn3)nc(N)c2C#N)cc1 [Example 4, N-{4-[6-amino-5-cyano-2-(4-methylpyridin-2-ylmethylsulfanyl)pyrimidin-4-yl]phenyl}acetamide] | –
7.46 | Cc1cccc(CSc2nc(N)c(C#N)c(-c3ccc(N)cc3)n2)n1 [Example 8, 4-amino-6-(4-aminophenyl)-2-(6-methylpyridin-2-ylmethylsulfanyl)-pyrimidine-5-carbonitrile] | –
8.05 | CCC(=O)Nc1ccc(-c2nc(SCc3cccc(C)n3)nc(N)c2C#N)cc1 [Example 9, N-{4-[6-amino-5-cyano-2-(6-methylpyridin-2-ylmethylsulfanyl)-pyrimidin-4-yl]phenyl}propionamide] | –
7.72 | C=CC(=O)Nc1ccc(-c2nc(SCc3cccc(C)n3)nc(N)c2C#N)cc1 [Example 10, N-{4-[6-amino-5-cyano-2-(6-methylpyridin-2-ylmethylsulfanyl)pyrimidin-4-yl]phenyl}acrylamide] | –
6.40 | CCCC(=O)Nc1ccc(-c2nc(SCc3cccc(C)n3)nc(N)c2C#N)cc1 [Example 11, N-{4-[6-amino-5-cyano-2-(6-methylpyridin-2-ylmethylsulfanyl)pyrimidin-4-yl]phenyl}butylamide] | –
7.87 | COC(=O)Nc1ccc(-c2nc(SCc3cccc(C)n3)nc(N)c2C#N)cc1 [Example 13, methyl {4-[6-amino-5-cyano-2-(6-methylpyridin-2-ylmethylsulfanyl)pyrimidin-4-yl]phenyl}-carbamate] | –
8.17 | CC(=O)Nc1ccc(-c2nc(SCc3cccc(CN4CCN(C(=O)OC(C)(C)C)CC4)n3)nc(N)c2C#N)cc1 [Example 17, t-butyl 4-{6-[4-(4-acetylaminophenyl)-6-amino-5-cyanopyrimidin-2-ylsulfanyl-methyl]-pyridin-2-ylmethyl}piperazine-1-carboxylate] | –
8.13 | CC(=O)Nc1ccc(-c2nc(SCc3cccc(CN4CCN(C(=O)c5ccccc5)CC4)n3)nc(N)c2C#N)cc1 [Example 19, N-(4-{6-amino-2-[6-(4-benzoylpiperazin-1-ylmethyl)pyridin-2-ylmethylsulfanyl]-5-cyanopyrimidin-4-yl}phenyl)acetamide] | –
7.97 | CC(=O)Nc1ccc(-c2nc(SCc3cccc(CN4CCN(C(=O)CN5CCN(C)CC5)CC4)n3)nc(N)c2C#N)cc1 [Example 21, N-{4-[6-amino-5-cyano-2-(6-{4-[2-(4-methylpiperazin-1-yl)acetyl]piperazin-1-ylmethyl}pyridin-2-ylmethylsulfanyl)pyrimidin-4-yl]phenyl}acetamide hydrochloride] | –
7.51 | CC(=O)Nc1ccc(-c2nc(SCc3cccc(C(=O)N4CCOCC4)n3)nc(N)c2C#N)cc1 [Example 26, N-(4-{6-amino-5-cyano-2-[6-(morpholin-4-carbonyl)pyridin-2-ylmethyl-sulfanyl]pyrimidin-4-yl}phenyl)acetamide hydrochloride salt] | –
8.09 | CC(=O)Nc1ccc(-c2nc(SCc3cccc(C(=O)N4CCN(C(=O)OC(C)(C)C)CC4)n3)nc(N)c2C#N)cc1 [Example 28, t-butyl 4-{6-[4-(4-acetylaminophenyl)-6-amino-5-cyanopyrimidin-2-ylsulfanyl-methyl]pyridine-2-carbonyl}piperazine-1-carboxylate] | –
7.32 | CC(=O)Nc1ccc(-c2nc(SCc3cccc(CNC(=O)CCCN4CCCC4)n3)nc(N)c2C#N)cc1 [Example 33, N-{6-[4-(4-acetylaminophenyl)-6-amino-5-cyanopyrimidin-2-ylsulfanylmethyl]pyridin-2-ylmethyl}-4-pyrrolidin-1-ylbutyl-amide] | –
7.64 | CCCS(=O)(=O)N(C)Cc1cccc(CSc2nc(N)c(C#N)c(-c3ccc(NC(C)=O)cc3)n2)n1 [Example 41, N-{4-[6-amino-5-cyano-2-(6-{[methyl(propan-1-sulfonyl)amino]methyl}-pyridin-2-ylmethylsulfanyl)pyrimidin-4-yl]phenyl}acetamide] | –
8.00 | CC(=O)Nc1ccc(-c2nc(SCc3cccc(CCC(=O)OC(C)(C)C)n3)nc(N)c2C#N)cc1 [Example 42, t-butyl 3-{6-[4-(4-acetylaminophenyl)-6-amino-5-cyanopyrimidin-2-ylsulfanyl-methyl]pyridin-2-yl}propionate] | –
7.54 | CC(=O)Nc1ccc(-c2nc(SCc3cccc(C=CC(=O)N4CCN(C)CC4)n3)nc(N)c2C#N)cc1 [Example 48, N-[4-(6-amino-5-cyano-2-{6-[3-(4-methylpiperazin-1-yl)-3-oxopropenyl]pyridin-2-ylmethylsulfanyl}pyrimidin-4-yl)-phenyl]acetamide] | –
8.15 | CC(=O)Nc1ccc(-c2nc(SCc3cccc(C#CCCC(=O)N4CCN(C)CC4)n3)nc(N)c2C#N)cc1 [Example 52, N-[4-(6-amino-5-cyano-2-{6-[5-(4-methylpiperazin-1-yl)-5-oxopent-1-ynyl]pyridin-2-ylmethylsulfanyl}pyrimidin-4-yl)phenyl]acetamide] | –
8.28 | CC(=O)Nc1ccc(-c2nc(SCc3cccc(CCCCC(=O)N4CCN(C)CC4)n3)nc(N)c2C#N)cc1 [Example 54, N-[4-(6-amino-5-cyano-2-{6-[5-(4-methylpiperazin-1-yl)-5-oxopentyl]pyridin-2-ylmethyl-sulfanyl}pyrimidin-4-yl)phenyl]acetamide] | –
8.26 | CCN(CC)CCN1CCN(C(=O)CCCCc2cccc(CSc3nc(N)c(C#N)c(-c4ccc(NC(C)=O)cc4)n3)n2)CC1 [Example 55, N-{4-[6-amino-5-cyano-2-(6-{5-[4-(2-diethylaminoethyl)piperazin-1-yl]-5-oxopentyl}pyridin-2-ylmethylsulfanyl)pyrimidin-4-yl]phenyl}acetamide hydrochloride] | –
8.29 | CN1CCN(C(=O)CCc2cccc(CSc3nc(N)c(C#N)c(-c4ccc(N)cc4)n3)n2)CC1 [Example 56, 4-amino-6-(4-aminophenyl)-2-{6-[3-(4-methylpiperazin-1-yl)-3-oxopropyl]-pyridin-2-ylmethylsulfanyl}pyrimidin-5-carbonitrile] | –
